*1 amine or outer side, *2 acyl side, *3 side chain or, on linkers, in order; H or OH if unused. Where a SMILES comes first, the peptide text is derived from it. Bridges are numbered along the chain shown (N, C = ends). Roman numbers before positions name the chains, in order. [ ]: non-standard residue; d: D form. Actinocin(9to1) = Cc1c2oc3c(C)ccc(C(=O)[*:1])c3nc-2c(C(=O)[*:2])c(N)c1=O; NMeV = CN[C@H](C(=O)O)C(C)C; Sar = CNCC(=O)O
Key:
[1] = tested on: nuclear β-catenin in C2C12 cells; assay: cells; format: cell-based; conditions: for WntCondMedia_bCatenin C2C12 IC50/EC50: assay number 5
[2] = tested on: alkaline phosphatase (ALP) activity in C2C12 cells; format: cell-based; conditions: concentration response; for WntCondMedia_Alk Phos C2C12 IC50/EC50: assay number 6
[3] = tested on: endothelial tube formation in co-cultures of ECFCs and ADSCs treated with VEGF; assay: cells; format: cell-based, human
HeLa cells = assay: cells; format: cell-based; conditions: for Hela CellCycMod PI 2N IC50/EC50: assay number 14; for Hela CellCycMod PI S Phase IC50/EC50: assay number 15; for Hela CellCycMod PI 4N IC50/EC50: assay number 16; for Hela CellCycMod PI MI IC50/EC50: assay number 17; for Hela CellCycMod PI Cell Number IC50/EC50: assay number 18
[4] = tested on: ECFC/ADSC co-culture cell nuclei number
DLD-1 = assay: cells; format: cell-based; conditions: basal
SW480 = assay: cells; format: cell-based; conditions: basal
[5] = tested on: HCT116 cells treated with a GSK3β inhibitor; assay: cells; format: cell-based; conditions: GSK3b inhibitor pretreated
Colo320 = assay: cells; format: cell-based; conditions: basal
RKO = assay: cells; format: cell-based; conditions: assay number 29; basal
INS-1E cells = assay: cells; format: cell-based, rat; conditions: IC50 / EC50; INS-1E; read-out: Insulin Secretion
NCI-H716 cells = assay: cells; format: cell-based, Human
STC-1 cell line = format: cell-based, mouse
HCT116 = assay: cells; format: cell-based; conditions: basal; read-out: Basal_Viability ATP HCT116
HT-29 = assay: cells; format: cell-based; conditions: basal; read-out: Basal_Viability ATP HT-29
SNU-C1 = assay: cells; format: cell-based; conditions: basal; read-out: Basal_Viability ATP SNU-C1
hp70S6K1 (RPS6KB1) = target: T1, hp70S6K1 (RPS6KB1) (Homo sapiens, UniProt P23443); assay: Cerep LANCE kinase assay hp70S6K1 (S1 assay 31); format: biochemical; conditions: read-out: p70S6K1
T1 construct: purchased Cerep (LANCE kinase assay platform, contract assay)
T1 sequence (P23443 whole entry): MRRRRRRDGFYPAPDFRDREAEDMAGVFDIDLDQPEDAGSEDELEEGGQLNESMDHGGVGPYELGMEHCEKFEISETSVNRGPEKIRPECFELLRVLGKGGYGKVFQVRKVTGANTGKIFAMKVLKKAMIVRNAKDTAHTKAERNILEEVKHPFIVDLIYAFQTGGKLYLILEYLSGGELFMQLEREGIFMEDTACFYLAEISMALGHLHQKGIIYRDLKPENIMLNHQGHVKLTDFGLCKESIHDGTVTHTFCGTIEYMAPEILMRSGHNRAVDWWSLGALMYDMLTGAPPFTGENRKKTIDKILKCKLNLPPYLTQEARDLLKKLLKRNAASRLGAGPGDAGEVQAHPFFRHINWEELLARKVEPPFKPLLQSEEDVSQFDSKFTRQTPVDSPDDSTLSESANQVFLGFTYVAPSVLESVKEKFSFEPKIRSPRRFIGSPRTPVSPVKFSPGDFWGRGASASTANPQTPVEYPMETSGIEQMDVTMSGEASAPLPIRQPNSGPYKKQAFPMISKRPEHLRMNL

hKDR = target: T2, hKDR (Homo sapiens, UniProt P35968); assay: Cerep LANCE kinase assay hKDR (S1 assay 32); format: biochemical; conditions: read-out: KDR
T2 construct: purchased Cerep (LANCE kinase assay platform, contract assay)
T2 sequence (P35968 20-1356): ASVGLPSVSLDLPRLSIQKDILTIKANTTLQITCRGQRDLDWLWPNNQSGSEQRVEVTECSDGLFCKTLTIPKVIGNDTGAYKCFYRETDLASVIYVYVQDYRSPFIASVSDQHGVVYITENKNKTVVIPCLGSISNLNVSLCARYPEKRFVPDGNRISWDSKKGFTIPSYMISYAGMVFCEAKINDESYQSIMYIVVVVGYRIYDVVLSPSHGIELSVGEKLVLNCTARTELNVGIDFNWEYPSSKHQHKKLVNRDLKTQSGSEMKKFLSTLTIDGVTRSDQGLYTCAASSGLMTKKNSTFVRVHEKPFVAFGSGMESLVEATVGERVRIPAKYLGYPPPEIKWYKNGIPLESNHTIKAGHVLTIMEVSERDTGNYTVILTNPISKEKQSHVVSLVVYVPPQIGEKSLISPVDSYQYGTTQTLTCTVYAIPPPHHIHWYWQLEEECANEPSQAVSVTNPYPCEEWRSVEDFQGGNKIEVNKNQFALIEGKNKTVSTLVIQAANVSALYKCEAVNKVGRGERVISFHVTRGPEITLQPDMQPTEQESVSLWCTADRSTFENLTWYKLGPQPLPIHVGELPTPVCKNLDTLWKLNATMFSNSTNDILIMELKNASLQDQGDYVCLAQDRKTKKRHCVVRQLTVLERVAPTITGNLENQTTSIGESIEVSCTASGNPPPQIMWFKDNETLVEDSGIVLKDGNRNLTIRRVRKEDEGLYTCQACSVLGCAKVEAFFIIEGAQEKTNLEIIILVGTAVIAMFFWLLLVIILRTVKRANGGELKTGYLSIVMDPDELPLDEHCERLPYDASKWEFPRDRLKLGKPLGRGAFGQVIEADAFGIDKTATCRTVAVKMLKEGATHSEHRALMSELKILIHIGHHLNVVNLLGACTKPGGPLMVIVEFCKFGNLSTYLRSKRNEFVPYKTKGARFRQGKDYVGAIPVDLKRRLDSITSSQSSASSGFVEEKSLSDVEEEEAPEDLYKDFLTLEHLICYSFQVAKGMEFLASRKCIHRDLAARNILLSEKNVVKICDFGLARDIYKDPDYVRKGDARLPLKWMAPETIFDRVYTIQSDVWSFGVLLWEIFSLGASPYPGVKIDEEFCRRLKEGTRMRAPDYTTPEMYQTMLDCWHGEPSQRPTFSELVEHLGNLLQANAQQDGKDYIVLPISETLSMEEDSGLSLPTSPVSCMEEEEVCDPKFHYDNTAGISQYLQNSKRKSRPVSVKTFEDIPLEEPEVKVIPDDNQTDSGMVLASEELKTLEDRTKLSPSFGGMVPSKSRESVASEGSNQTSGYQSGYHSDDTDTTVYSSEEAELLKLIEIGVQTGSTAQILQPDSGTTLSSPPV

hJAK2 = target: T3, hJAK2 (Homo sapiens, UniProt O60674); assay: Cerep LANCE kinase assay hJAK2 (S1 assay 33); format: biochemical; conditions: read-out: JAK2
T3 construct: purchased Cerep (LANCE kinase assay platform, contract assay)
T3 sequence (O60674 whole entry): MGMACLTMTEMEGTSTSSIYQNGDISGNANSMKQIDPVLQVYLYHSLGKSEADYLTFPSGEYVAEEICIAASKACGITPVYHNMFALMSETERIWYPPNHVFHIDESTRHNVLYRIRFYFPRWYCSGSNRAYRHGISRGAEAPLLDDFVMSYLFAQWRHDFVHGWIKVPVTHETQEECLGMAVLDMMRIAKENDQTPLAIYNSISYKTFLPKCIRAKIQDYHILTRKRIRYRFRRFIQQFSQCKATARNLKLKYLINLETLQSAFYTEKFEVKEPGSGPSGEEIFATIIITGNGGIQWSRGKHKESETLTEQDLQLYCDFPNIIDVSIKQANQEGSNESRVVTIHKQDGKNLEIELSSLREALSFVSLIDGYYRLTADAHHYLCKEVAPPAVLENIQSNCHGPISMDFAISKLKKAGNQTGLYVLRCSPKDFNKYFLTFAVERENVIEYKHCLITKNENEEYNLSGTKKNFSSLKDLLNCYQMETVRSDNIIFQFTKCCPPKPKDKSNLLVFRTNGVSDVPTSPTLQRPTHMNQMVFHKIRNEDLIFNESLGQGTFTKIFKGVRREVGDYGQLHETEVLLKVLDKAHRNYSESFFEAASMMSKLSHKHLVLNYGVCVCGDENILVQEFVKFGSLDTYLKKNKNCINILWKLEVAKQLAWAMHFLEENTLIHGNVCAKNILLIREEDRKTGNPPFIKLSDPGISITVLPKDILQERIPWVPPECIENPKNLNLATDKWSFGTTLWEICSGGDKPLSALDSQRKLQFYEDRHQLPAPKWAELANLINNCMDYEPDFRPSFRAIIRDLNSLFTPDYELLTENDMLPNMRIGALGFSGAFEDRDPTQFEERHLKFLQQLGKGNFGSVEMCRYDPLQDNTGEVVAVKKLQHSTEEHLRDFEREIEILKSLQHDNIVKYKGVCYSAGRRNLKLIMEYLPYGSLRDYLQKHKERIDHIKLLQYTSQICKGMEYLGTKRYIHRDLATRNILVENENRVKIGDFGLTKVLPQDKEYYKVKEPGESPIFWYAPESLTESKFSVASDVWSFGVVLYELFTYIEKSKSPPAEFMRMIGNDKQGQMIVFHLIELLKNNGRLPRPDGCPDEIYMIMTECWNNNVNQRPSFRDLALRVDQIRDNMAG

hGSK3b = target: T4, hGSK3b (Homo sapiens, UniProt P49841); assay: Cerep LANCE kinase assay hGSK3b (S1 assay 34); format: biochemical; conditions: read-out: GSK3b
T4 construct: purchased Cerep (LANCE kinase assay platform, contract assay)
T4 sequence (P49841 whole entry): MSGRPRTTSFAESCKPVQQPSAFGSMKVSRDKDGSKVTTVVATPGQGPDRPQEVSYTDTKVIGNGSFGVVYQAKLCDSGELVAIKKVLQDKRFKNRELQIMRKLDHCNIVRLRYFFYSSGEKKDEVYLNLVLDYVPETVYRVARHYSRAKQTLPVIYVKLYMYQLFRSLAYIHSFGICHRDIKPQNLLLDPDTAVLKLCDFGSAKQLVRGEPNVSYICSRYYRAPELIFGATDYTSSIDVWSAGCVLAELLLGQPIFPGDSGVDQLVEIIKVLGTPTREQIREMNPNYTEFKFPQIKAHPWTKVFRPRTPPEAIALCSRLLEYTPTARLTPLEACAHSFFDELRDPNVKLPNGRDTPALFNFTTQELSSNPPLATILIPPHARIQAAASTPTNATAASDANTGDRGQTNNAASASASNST

hFLT3 = target: T5, hFLT3 (Homo sapiens, UniProt P36888); assay: Cerep LANCE kinase assay hFLT3 (S1 assay 35); format: biochemical; conditions: read-out: FLT3
T5 construct: purchased Cerep (LANCE kinase assay platform, contract assay)
T5 sequence (P36888 27-993): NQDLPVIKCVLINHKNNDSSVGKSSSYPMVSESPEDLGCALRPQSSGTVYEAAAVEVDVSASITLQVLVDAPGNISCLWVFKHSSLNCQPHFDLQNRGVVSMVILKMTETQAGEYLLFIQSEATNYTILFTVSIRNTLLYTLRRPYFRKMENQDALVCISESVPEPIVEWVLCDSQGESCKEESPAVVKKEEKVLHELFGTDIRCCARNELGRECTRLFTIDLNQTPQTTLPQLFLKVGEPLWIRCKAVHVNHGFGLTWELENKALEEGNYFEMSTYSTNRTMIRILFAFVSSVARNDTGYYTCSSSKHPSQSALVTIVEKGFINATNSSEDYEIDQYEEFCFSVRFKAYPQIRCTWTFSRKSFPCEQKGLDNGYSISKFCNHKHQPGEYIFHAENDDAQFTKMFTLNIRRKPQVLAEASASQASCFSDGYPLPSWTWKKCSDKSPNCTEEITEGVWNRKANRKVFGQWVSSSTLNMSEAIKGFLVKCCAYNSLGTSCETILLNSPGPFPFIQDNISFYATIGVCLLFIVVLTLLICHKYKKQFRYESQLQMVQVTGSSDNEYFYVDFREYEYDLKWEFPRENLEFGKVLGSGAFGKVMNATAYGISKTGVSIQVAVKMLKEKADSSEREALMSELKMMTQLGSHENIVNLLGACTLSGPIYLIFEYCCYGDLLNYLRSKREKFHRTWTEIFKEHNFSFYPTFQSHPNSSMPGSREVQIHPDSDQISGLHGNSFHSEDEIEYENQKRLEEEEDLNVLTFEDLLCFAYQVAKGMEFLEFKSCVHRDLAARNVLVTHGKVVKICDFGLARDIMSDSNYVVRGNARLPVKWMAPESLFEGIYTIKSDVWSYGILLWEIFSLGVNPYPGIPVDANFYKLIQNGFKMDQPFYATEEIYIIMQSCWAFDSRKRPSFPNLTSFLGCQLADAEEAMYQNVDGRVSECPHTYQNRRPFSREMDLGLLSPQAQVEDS

| Structure (SMILES) | WntCondMedia_bCatenin C2C12 IC50/EC50 ([1]; concentration response) | WntCondMedia_Alk Phos C2C12 IC50/EC50 [2] | VEGF_ADSC\ECFC Angio CD31 TubeArea IC50/EC50 [3] | VEGF_ADSC\ECFC Angio Hoechst NucArea IC50/EC50 [4] | Hela CellCycMod PI 2N IC50/EC50 (HeLa cells; 2N) | Hela CellCycMod PI 4N IC50/EC50 (HeLa cells; 4N) | Hela CellCycMod PI MI IC50/EC50 (HeLa cells; MI) | Hela CellCycMod PI Cell Number IC50/EC50 (HeLa cells) | other results |
| --- | --- | --- | --- | --- | --- | --- | --- | --- | --- |
| CCCCCCCCCCCCCCC[C@H](O)[C@@H](N)CO [NCGC00015362-05] | > 20 µM | > 20 µM | – | – | – | – | – | – | – |
| CCCCc1ccc2nc(NC(=O)OC)[nH]c2c1 [NCGC00016706-07] | – | – | – | – | – | – | – | – | IC50/EC50, VEGF_ADSC\ECFC Angio CD31 TubeArea (assay number 2) [3]: 0.053 µM; IC50/EC50, WntCondMedia_bCatenin C2C12 (assay number 5) ([1]; concentration response): 0.0336 µM; IC50/EC50, WntCondMedia_Alk Phos C2C12 (assay number 6) [2]: 0.0682 µM; IC50/EC50, Hela CellCycMod PI 2N (assay number 14) (HeLa cells; 2N): 0.0104 µM; IC50/EC50, Hela CellCycMod PI 4N (assay number 16) (HeLa cells; 4N): 0.01062 µM; IC50/EC50, Hela CellCycMod PI Cell Number (assay number 18) (HeLa cells; Cell Number): 0.00566 µM; IC50/EC50, Hela CellCycMod PI MI (assay number 17) (HeLa cells; MI): 0.00717 µM; IC50/EC50, Hela CellCycMod PI S Phase (assay number 15) (HeLa cells; S Phase): > 10 µM; IC50/EC50, VEGF_ADSC\ECFC Angio Hoechst NucArea (assay number 3) [4]: > 10 µM |
| CN[C@@H]1C[C@@H](c2ccc(Cl)c(Cl)c2)c2ccccc21 [NCGC00025223-04] | > 20 µM | > 20 µM | > 10 µM | > 10 µM | – | – | – | – | – |
| Cl.O[C@@H](c1cc(C(F)(F)F)nc2c(C(F)(F)F)cccc12)[C@H]1CCCCN1 [NCGC00161831-04] | > 20 µM | > 20 µM | > 10 µM | 8.609 µM | – | – | – | – | – |
| CCCCCCCCCCOCC(O)CN (centres unmarked) [NCGC00166070-02] | > 20 µM | > 20 µM | 6.5465 µM | > 10 µM | > 10 µM | > 10 µM | > 10 µM | > 10 µM | Hela CellCycMod PI S Phase IC50/EC50 (HeLa cells): > 10 µM |
| Cc1cc(CC(C)CC(C)(C)C)n(O)c(=O)c1 (centres unmarked) [NCGC00167586-03] | 0.5913 µM | > 20 µM | – | – | > 10 µM | > 10 µM | > 10 µM | 0.1332 µM | Hela CellCycMod PI S Phase IC50/EC50 (HeLa cells): > 10 µM |
| COc1cc([C@@H]2c3cc4c(cc3[C@@H](O[C@@H]3O[C@@H]5CO[C@@H](C)O[C@@H]5[C@H](O)[C@@H]3O)[C@H]3COC(=O)[C@H]23)OCO4)cc(OC)c1O [NCGC00179504-05] | > 20 µM | > 20 µM | 0.1091 µM | 0.9666 µM | – | – | – | – | – |
| Cc1nc(Nc2ncc(C(=O)Nc3c(C)cccc3Cl)s2)cc(N2CCN(CCO)CC2)n1 [NCGC00181129-06] | 0.1044 µM | 0.0067 µM | > 10 µM | > 10 µM | > 10 µM | > 10 µM | > 10 µM | 0.8748 µM | – |
| Clc1cc(Cl)c(OCC#CI)cc1Cl [NCGC00181134-02] | > 20 µM | > 20 µM | > 10 µM | > 10 µM | – | – | – | – | – |
| C=CC(=O)Nc1cc2c(Nc3ccc(F)c(Cl)c3)ncnc2cc1OCCCN1CCOCC1 [NCGC00182713-01] | 1.0017 µM | 9.4628 µM | – | – | 8.8729 µM | > 10 µM | 4.2934 µM | 2.0936 µM | Hela CellCycMod PI S Phase IC50/EC50 (HeLa cells): > 10 µM |
| CCCCCCCCCCCCCC[N+](C)(C)Cc1ccccc1 [NCGC00187943-02] | > 20 µM | > 20 µM | 3.0091 µM | 8.357 µM | – | – | – | – | – |
| CN1CC[C@H](c2c(O)cc(O)c3c(=O)cc(-c4ccccc4Cl)oc23)[C@H](O)C1.Cl [NCGC00250401-02] | 0.1905 µM | 0.4611 µM | 0.1138 µM | 0.3284 µM | > 10 µM | > 10 µM | 0.0807 µM | 0.0212 µM | – |
| O.O.O.O.O=C1OC2(c3cc(Br)c([O-])cc3Oc3c2cc(Br)c([O-])[c]3[Hg])c2ccccc21.[Na+].[Na+] (centres unmarked) [NCGC00262588-02] | 16.8578 µM | > 20 µM | – | – | – | – | – | – | – |
| Cc1c2oc3c(C)ccc(C(=O)N[C@@H]4C(=O)N[C@H](C(C)C)C(=O)N5CCC[C@H]5C(=O)N(C)CC(=O)N(C)[C@@H](C(C)C)C(=O)O[C@@H]4C)c3nc-2c(C(=O)N[C@@H]2C(=O)N[C@H](C(C)C)C(=O)N3CCC[C@H]3C(=O)N(C)CC(=O)N(C)[C@@H](C(C)C)C(=O)O[C@@H]2C)c(N)c1=O [NCGC00271789-02] (I: T[dV]P[Sar][NMeV] / II: T[dV]P[Sar][NMeV]; ester I:1-I:C, II:1-II:C; linker I:N-II:N via Actinocin(9to1)) | 0.037 µM | 0.0015 µM | 0.001 µM | 0.04031 µM | – | – | – | – | – |
| CCCCCCCCCCCCNCCNCCNCC(=O)O [NCGC00274269-01] | > 20 µM | > 20 µM | 6.0404 µM | > 10 µM | > 10 µM | > 10 µM | > 10 µM | > 10 µM | Hela CellCycMod PI S Phase IC50/EC50 (HeLa cells): > 10 µM |
| COc1cccc2c1C(=O)c1c(O)c3c(c(O)c1C2=O)C[C@@](O)(C(=O)CO)CC3OC1CC(N2CCOC(OC)C2)C(O)C(C)O1 (some centres unmarked) [NCGC00319019-01] | 0.0135 µM | > 20 µM | 0.003 µM | 0.04422 µM | – | > 10 µM | 0.01176 µM | 0.00468 µM | Basal_Viability ATP DLD-1 IC50/EC50 (DLD-1; assay number 23): 0.001 µM; Basal_Viability ATP SW480 IC50/EC50 (SW480; assay number 24): 0.001 µM; GSK3b inh pretreated_Viability ATP HCT116 IC50/EC50 ([5]; assay number 26): 0.001 µM; Basal_Viability ATP Colo 320 IC50/EC50 (Colo320; assay number 27): 0.001 µM; Basal_Viability ATP RKO IC50/EC50 (RKO): 0.001 µM |
| Cc1ccc([N+](=O)[O-])[c]2c1[O][Hg]2 [nitromersol, reference compound] | – | – | – | – | – | – | – | – | IC50 ([3]; IC50 / EC50, endothelial tube area, ADSC/ECFC co-culture, read-out: Anti-Angiogenesis): 0.668 µM; EC50 ([1]; IC50 / EC50, C2C12 beta-catenin translocation, read-out: Wnt Pathway): 0.155 µM; EC50 (INS-1E cells): > 20 µM; activity in NCI-H716 GLP-1 secretion assay (in words) (NCI-H716 cells): potent actives; EC50 (NCI-H716 cells; IC50 / EC50, NCI-H716, read-out: GLP 1 Secretion): 0.0972 µM; activity in STC-1 GLP-1 secretion assay (in words) (STC-1 cell line): potent actives; EC50 (HeLa cells; IC50 / EC50, HeLa, read-out: CellCycle G2/M): > 10 µM; IC50 (DLD-1; read-out: Basal_Viability ATP DLD-1): 1.62 µM; IC50 (SW480; read-out: Basal_Viability ATP SW480): 1.13 µM; IC50 (HCT116): 2.83 µM; IC50 ([5]; read-out: GSK3b inh pretreated_Viability ATP HCT116): > 20 µM; IC50 (Colo320; read-out: Basal_Viability ATP Colo 320): 0.935 µM; IC50 (HT-29): 1.44 µM; IC50 (SNU-C1): 0.202 µM; IC50 (hp70S6K1 (RPS6KB1)): > 20 µM; IC50 (hKDR): 16.8 µM; IC50 (hJAK2): > 20 µM; IC50 (hGSK3b): 8.37 µM; IC50 (hFLT3): 10.4 µM |

Reference: publication PMC4503722, “Novel Phenotypic Outcomes Identified for a Public Collection of Approved Drugs from a Publicly Accessible Panel of Assays” (PLoS ONE, 2015)
